Laboratory results reported in patent US4999042A, “Phenyl oximino-acetate fungicides” (Imperial Chemical Industries PLC, priority 1986, dated 1991).

What follows are compounds tested on Puccinia recondita (wheat) (assay: Foliar fungal disease control, Puccinia recondita on wheat). Settings: 25 ppm foliar spray only.
Format: in vivo
`CON=C(C(=O)OC)c1ccccc1OC1CCCCC1` (single isomer, unassigned) [Compound 10] was tested, and the “disease control grading, PUCCINIA RECONDITA (WHEAT)” value (“disease control grading … (WHEAT)” below) was 3 (trace - 5% of disease on untreated plants).

Same assay, conditions: 100 ppm foliar spray plus root drench approx. 40 ppm a.i./dry soil, 1-2 days before inoculation
In the case of `CO/N=C(/C(=O)OC)c1ccccc1Oc1ccccc1` [Compound 6, methyl O-methyl(2-phenoxyphenyl)oximino-acetate], the “disease control grading … (WHEAT)” value is reported as 4.
For `CON=C(C(=O)OC)c1cccc2c1oc1ccccc12` (single isomer, unassigned) [Compound 17], the “disease control grading … (WHEAT)” value was 3 (trace - 5% of disease on untreated plants).
In the case of `CON=C(C(=O)OC)c1cccc2c1Oc1ccccc1O2` (single isomer, unassigned) [Compound 32], the “disease control grading … (WHEAT)” value is reported as 4.
In the case of `CON=C(C(=O)OC)c1ccccc1/C=C/c1ccco1` (single isomer, unassigned) [Compound 4], the “disease control grading … (WHEAT)” value is reported as 4.
For `CON=C(C(=O)OC)c1ccccc1N(C)C(=O)c1cccs1` (single isomer, unassigned) [Compound 33], the “disease control grading … (WHEAT)” value was 0 (60-100% of disease on untreated plants).
`CON=C(C(=O)OC)c1ccccc1/C=C/c1ccccc1` (single isomer, unassigned) [Compound 2, methyl O-methyl (2-(E)-styrylphenyl)oximino-acetate] was tested, and the “disease control grading … (WHEAT)” value was 2 (6-25% of disease on untreated plants).
In the case of `CON=C(C(=O)OC)c1ccccc1/C=C/c1ccccc1` (single isomer, unassigned) [Compound 1, methyl O-methyl (2-(E)-styrylphenyl)oximino-acetate], the “disease control grading … (WHEAT)” value is reported as 0 (60-100% of disease on untreated plants).

These compounds were tested on Erysiphe graminis hordei (barley) (assay: Foliar fungal disease control, Erysiphe graminis hordei on barley). Settings: 25 ppm foliar spray only, inoculated 24 hours before treatment.
Format: in vivo
With `CON=C(C(=O)OC)c1ccccc1OC1CCCCC1` (single isomer, unassigned) [Compound 10] the “disease control grading, ERYSIPHE GRAMINIS HORDEI (BARLEY)” value (from here on “disease control grading … (BARLEY)”) was 3 (trace - 5% of disease on untreated plants).

Same assay, conditions: 100 ppm foliar spray plus root drench approx. 40 ppm a.i./dry soil, inoculated 24 hours before treatment
For `CO/N=C(/C(=O)OC)c1ccccc1Oc1ccccc1` [Compound 6, methyl O-methyl(2-phenoxyphenyl)oximino-acetate], the “disease control grading … (BARLEY)” value was 4.
With `CON=C(C(=O)OC)c1cccc2c1oc1ccccc12` (single isomer, unassigned) [Compound 17] the “disease control grading … (BARLEY)” value was 0 (60-100% of disease on untreated plants).
With `CON=C(C(=O)OC)c1cccc2c1Oc1ccccc1O2` (single isomer, unassigned) [Compound 32] the “disease control grading … (BARLEY)” value was 3 (trace - 5% of disease on untreated plants).
`CON=C(C(=O)OC)c1ccccc1/C=C/c1ccco1` (single isomer, unassigned) [Compound 4] was tested, and the “disease control grading … (BARLEY)” value was 0 (60-100% of disease on untreated plants).
With `CON=C(C(=O)OC)c1ccccc1N(C)C(=O)c1cccs1` (single isomer, unassigned) [Compound 33] the “disease control grading … (BARLEY)” value was 0 (60-100% of disease on untreated plants).
`CON=C(C(=O)OC)c1ccccc1/C=C/c1ccccc1` (single isomer, unassigned) [Compound 2, methyl O-methyl (2-(E)-styrylphenyl)oximino-acetate] was tested, and the “disease control grading … (BARLEY)” value was 0 (60-100% of disease on untreated plants).
`CON=C(C(=O)OC)c1ccccc1/C=C/c1ccccc1` (single isomer, unassigned) [Compound 1, methyl O-methyl (2-(E)-styrylphenyl)oximino-acetate] was tested, and the “disease control grading … (BARLEY)” value was 0 (60-100% of disease on untreated plants).

The compounds below were run on Venturia inaequalis (apple) (assay: Foliar fungal disease control, Venturia inaequalis on apple). Settings: 25 ppm foliar spray only.
Format: in vivo
In the case of `CON=C(C(=O)OC)c1ccccc1OC1CCCCC1` (single isomer, unassigned) [Compound 10], the “disease control grading, VENTURIA INAEQUALIS (APPLE)” value (from here on “disease control grading … (APPLE)”) is reported as 2 (6-25% of disease on untreated plants).

Same assay, conditions: 100 ppm foliar spray plus root drench approx. 40 ppm a.i./dry soil, 1-2 days before inoculation
In the case of `CO/N=C(/C(=O)OC)c1ccccc1Oc1ccccc1` [Compound 6, methyl O-methyl(2-phenoxyphenyl)oximino-acetate], the “disease control grading … (APPLE)” value is reported as 4.
`CON=C(C(=O)OC)c1cccc2c1oc1ccccc12` (single isomer, unassigned) [Compound 17] was tested, and the “disease control grading … (APPLE)” value was 1 (26-59% of disease on untreated plants).
For `CON=C(C(=O)OC)c1cccc2c1Oc1ccccc1O2` (single isomer, unassigned) [Compound 32], the “disease control grading … (APPLE)” value was 2 (6-25% of disease on untreated plants).
With `CON=C(C(=O)OC)c1ccccc1/C=C/c1ccco1` (single isomer, unassigned) [Compound 4] the “disease control grading … (APPLE)” value was 4.
In the case of `CON=C(C(=O)OC)c1ccccc1N(C)C(=O)c1cccs1` (single isomer, unassigned) [Compound 33], the “disease control grading … (APPLE)” value is reported as 4.
In the case of `CON=C(C(=O)OC)c1ccccc1/C=C/c1ccccc1` (single isomer, unassigned) [Compound 2, methyl O-methyl (2-(E)-styrylphenyl)oximino-acetate], the “disease control grading … (APPLE)” value is reported as 4.
With `CON=C(C(=O)OC)c1ccccc1/C=C/c1ccccc1` (single isomer, unassigned) [Compound 1, methyl O-methyl (2-(E)-styrylphenyl)oximino-acetate] the “disease control grading … (APPLE)” value was 3 (trace - 5% of disease on untreated plants).

Each compound was assayed on Pyricularia oryzae (rice) (assay: not given). Settings: 25 ppm foliar spray only.
Format: in vivo
In the case of `CON=C(C(=O)OC)c1ccccc1OC1CCCCC1` (single isomer, unassigned) [Compound 10], the “disease control grading, P[…] (RICE)” value is reported as 3 (trace - 5% of disease on untreated plants).

Same assay, conditions: 100 ppm foliar spray plus root drench approx. 40 ppm a.i./dry soil, 1-2 days before inoculation
`CO/N=C(/C(=O)OC)c1ccccc1Oc1ccccc1` [Compound 6, methyl O-methyl(2-phenoxyphenyl)oximino-acetate] was tested, and the “disease control grading, P[…] (RICE)” value was 3 (trace - 5% of disease on untreated plants).
In the case of `CON=C(C(=O)OC)c1cccc2c1oc1ccccc12` (single isomer, unassigned) [Compound 17], the “disease control grading, P[…] (RICE)” value is reported as 0 (60-100% of disease on untreated plants).
In the case of `CON=C(C(=O)OC)c1cccc2c1Oc1ccccc1O2` (single isomer, unassigned) [Compound 32], the “disease control grading, P[…] (RICE)” value is reported as 0 (60-100% of disease on untreated plants).
With `CON=C(C(=O)OC)c1ccccc1/C=C/c1ccco1` (single isomer, unassigned) [Compound 4] the “disease control grading, P[…] (RICE)” value was 3 (trace - 5% of disease on untreated plants).
`CON=C(C(=O)OC)c1ccccc1N(C)C(=O)c1cccs1` (single isomer, unassigned) [Compound 33] was tested, and the “disease control grading, P[…] (RICE)” value was 0 (60-100% of disease on untreated plants).
For `CON=C(C(=O)OC)c1ccccc1/C=C/c1ccccc1` (single isomer, unassigned) [Compound 2, methyl O-methyl (2-(E)-styrylphenyl)oximino-acetate], the “disease control grading, P[…] (RICE)” value was 0 (60-100% of disease on untreated plants).
`CON=C(C(=O)OC)c1ccccc1/C=C/c1ccccc1` (single isomer, unassigned) [Compound 1, methyl O-methyl (2-(E)-styrylphenyl)oximino-acetate] was tested, and the “disease control grading, P[…] (RICE)” value was 0 (60-100% of disease on untreated plants).

These compounds were tested on Cercospora arachidicola (peanut) (assay: Foliar fungal disease control, Cercospora arachidicola on peanut). Settings: 25 ppm foliar spray only.
Format: in vivo
For `CON=C(C(=O)OC)c1ccccc1OC1CCCCC1` (single isomer, unassigned) [Compound 10], the “disease control grading, CERCOSPORA ARACHIDICOLA (PEANUT)” value (“disease control grading … (PEANUT)” below) was 0 (60-100% of disease on untreated plants).

Same assay, conditions: 100 ppm foliar spray plus root drench approx. 40 ppm a.i./dry soil, 1-2 days before inoculation
In the case of `CO/N=C(/C(=O)OC)c1ccccc1Oc1ccccc1` [Compound 6, methyl O-methyl(2-phenoxyphenyl)oximino-acetate], the “disease control grading … (PEANUT)” value is reported as 3 (trace - 5% of disease on untreated plants).
In the case of `CON=C(C(=O)OC)c1cccc2c1oc1ccccc12` (single isomer, unassigned) [Compound 17], the “disease control grading … (PEANUT)” value is reported as 0 (60-100% of disease on untreated plants).
For `CON=C(C(=O)OC)c1cccc2c1Oc1ccccc1O2` (single isomer, unassigned) [Compound 32], the “disease control grading … (PEANUT)” value was 1 (26-59% of disease on untreated plants).
`CON=C(C(=O)OC)c1ccccc1/C=C/c1ccco1` (single isomer, unassigned) [Compound 4] was tested, and the “disease control grading … (PEANUT)” value was 3 (trace - 5% of disease on untreated plants).
With `CON=C(C(=O)OC)c1ccccc1N(C)C(=O)c1cccs1` (single isomer, unassigned) [Compound 33] the “disease control grading … (PEANUT)” value was 0 (60-100% of disease on untreated plants).
For `CON=C(C(=O)OC)c1ccccc1/C=C/c1ccccc1` (single isomer, unassigned) [Compound 2, methyl O-methyl (2-(E)-styrylphenyl)oximino-acetate], the “disease control grading … (PEANUT)” value was 0 (60-100% of disease on untreated plants).
With `CON=C(C(=O)OC)c1ccccc1/C=C/c1ccccc1` (single isomer, unassigned) [Compound 1, methyl O-methyl (2-(E)-styrylphenyl)oximino-acetate] the “disease control grading … (PEANUT)” value was 0 (60-100% of disease on untreated plants).

Each compound was assayed on Plasmopara viticola (vine) (assay: Foliar fungal disease control, Plasmopara viticola on vine). Settings: 25 ppm foliar spray only.
Format: in vivo
In the case of `CON=C(C(=O)OC)c1ccccc1OC1CCCCC1` (single isomer, unassigned) [Compound 10], the “disease control grading, PLASMOPARA VITICOLA (VINE)” value (“disease control grading … (VINE)” below) is reported as 2 (6-25% of disease on untreated plants).

Same assay, conditions: 100 ppm foliar spray plus root drench approx. 40 ppm a.i./dry soil, 1-2 days before inoculation
`CO/N=C(/C(=O)OC)c1ccccc1Oc1ccccc1` [Compound 6, methyl O-methyl(2-phenoxyphenyl)oximino-acetate] was tested, and the “disease control grading … (VINE)” value was 4.
For `CON=C(C(=O)OC)c1cccc2c1oc1ccccc12` (single isomer, unassigned) [Compound 17], the “disease control grading … (VINE)” value was 2 (6-25% of disease on untreated plants).
In the case of `CON=C(C(=O)OC)c1cccc2c1Oc1ccccc1O2` (single isomer, unassigned) [Compound 32], the “disease control grading … (VINE)” value is reported as 4.
`CON=C(C(=O)OC)c1ccccc1/C=C/c1ccco1` (single isomer, unassigned) [Compound 4] was tested, and the “disease control grading … (VINE)” value was 4.
`CON=C(C(=O)OC)c1ccccc1N(C)C(=O)c1cccs1` (single isomer, unassigned) [Compound 33] was tested, and the “disease control grading … (VINE)” value was 0 (60-100% of disease on untreated plants).
`CON=C(C(=O)OC)c1ccccc1/C=C/c1ccccc1` (single isomer, unassigned) [Compound 2, methyl O-methyl (2-(E)-styrylphenyl)oximino-acetate] was tested, and the “disease control grading … (VINE)” value was 4.
For `CON=C(C(=O)OC)c1ccccc1/C=C/c1ccccc1` (single isomer, unassigned) [Compound 1, methyl O-methyl (2-(E)-styrylphenyl)oximino-acetate], the “disease control grading … (VINE)” value was 4.

These compounds were tested on Maize (MZ) (assay: Plant growth regulating whole plant screen, maize). Settings: 4000 ppm (4 kg/ha) spray, after 2-6 weeks.
Format: in vivo
Description: (§1) This Example illustrates the plant growth regulating properties of compounds 1, 2, 5 and 12-15 of Table I when tested on a whole plant screen against two species of plant. The plant species are identified in Table IV with the leaf stage at which they were sprayed.
(§2) A formulation of each chemical was applied at 4000 ppm (4 kg/ha in a 1000 1/ha field volume) using a tracksprayer and a SS8004E (Teejet) nozzle.
(§3) After spraying, the plants were grown in a glasshouse with 25° C. day/22° C. night temperatures. Supplementary lighting was supplied when necessary to provide an average photoperiod of 16 hours (14 hours minimum).
(§4) After 2-6 weeks in the glasshouse, depending on species and time of year, the plants were visually assessed for morphological characteristics against a control plant sprayed with a blank formulation.
With `CON=C(C(=O)OC)c1ccccc1/C=C/c1ccccc1` (single isomer, unassigned) [Compound 1, methyl O-methyl (2-(E)-styrylphenyl)oximino-acetate] the “P = Phytotoxicity” value was 1 (less than 10%).

Same assay, conditions: 4000 ppm (4 kg/ha) spray, visual score after 2-6 weeks
For `CON=C(C(=O)OC)c1ccccc1/C=C/c1ccccc1` (single isomer, unassigned) [Compound 2, methyl O-methyl (2-(E)-styrylphenyl)oximino-acetate], the “A = Apical damage” value was 2 (31-60%), the “I = Interligular or internodal length reduction” value was 2 (31-60%) and the “R = Retardation” value was 2 (31-60%).
For `CON=C(C(=O)OC)c1ccccc1/C=C/c1ccccc1` (single isomer, unassigned) [Compound 1, methyl O-methyl (2-(E)-styrylphenyl)oximino-acetate], the “A = Apical damage” value was 3 (61-100%), the “G = Greening effect” value was 2 (31-60%) and the “I = Interligular or internodal length reduction” value was 3 (61-100%). The “R = Retardation” value was 3 (61-100%).

The compounds below were run on Apple (AP) (assay: Plant growth regulating whole plant screen, apple). Settings: 4000 ppm (4 kg/ha) spray, visual score after 2-6 weeks.
Format: in vivo
Description: as §1, §2, §3, §4
With `CON=C(C(=O)OC)c1ccccc1/C=C/c1ccccc1` (single isomer, unassigned) [Compound 2, methyl O-methyl (2-(E)-styrylphenyl)oximino-acetate] the “G = Greening effect” value was 1 (10-30%), the “I = Interligular or internodal length reduction” value was 1 (10-30%) and the “R = Retardation” value was 2 (31-60%).
